One data set deals with 5-HT reuptake (Homo sapiens, UniProt P31645). Briefly: In vitro receptor affinity, 5-HT reuptake. It counts as binding. The settings on record: radioligand [3H]-paroxetine, read-out: K1 (in vitro receptor affinity). The protocol:
(§1) ln vitro affinity for neurotransmitter receptors: The binding data collected below were either obtained by CE REP (128, rue Danton, 92500 Rueil-Malmaison, France) or at Solvay Pharmaceuticals B.V. (C. J. van Houtenlaan 36, 1381 CP Weesp, The Netherlands), using well documented standard procedures. The affinities for dopamine-D2 and 5-HT1A receptors for instance, were measured as described by Creese (1997) and Gozlan (1983) respectively.

Another data set concerns the target Serotonin-5-HT2C (Homo sapiens, UniProt P28335). In words: In vitro receptor affinity, Serotonin-5-HT2C. The format is binding. Particulars: radioligand [125I]-DOI, read-out: K1 (in vitro receptor affinity). How it is done:
as §1

A further data set deals with Muscarine-M5 (Homo sapiens, UniProt P08912). Briefly: In vitro receptor affinity, Muscarine-M5. The settings on record: radioligand [3H]-4-DAMP, read-out: K1 (in vitro receptor affinity). It counts as binding. The protocol:
as §1

The next data set has as its target Serotonin-5-HT3 (Rattus norvegicus, UniProt P35563). In words: In vitro receptor affinity, Serotonin-5-HT3. It counts as binding. Particulars: radioligand [3H]-GR 38032F, read-out: K1 (in vitro receptor affinity). The protocol:
as §1

The target of the next data set is Muscarine-M4 (Homo sapiens, UniProt P08173). Briefly: In vitro receptor affinity, Muscarine-M4. The format is binding. Particulars: radioligand [3H]-4-DAMP, read-out: K1 (in vitro receptor affinity). The protocol:
as §1

Another data set deals with T1, human D2 receptors (Homo sapiens, UniProt P14416).
T1 construct: expressed in transfected cells; host or cells: CHO
Briefly: In vitro functional antagonism at D2 receptors, adenylate cyclase in CHO cell-lines. It counts as cell-based. The settings on record: CHO cell-lines expressing cloned receptor; read-out: Antagonism human D2 receptors, pA2 (converted). The protocol: (§2) In vitro (ant)agonistic activity at human D2 receptors and 5-HT1A receptors was measured according to the methods described by Solomon (1974) and Weiss (1985) respectively, on the formation of adenylate cyclase in CHO cell-lines expressing these cloned receptors.

Another data set addresses Dopamine-D1 (Homo sapiens, UniProt P21728). Briefly: In vitro receptor affinity, Dopamine-D1. It counts as binding. Particulars: radioligand [3H]-SCH 23390, read-out: K1 (in vitro receptor affinity). The protocol: as §1
The target in another data set is α2-adrenergic. In words: In vitro receptor affinity, α2-adrenergic. It counts as binding. The settings on record: rat, radioligand [3H]-RX 821002; read-out: K1 (in vitro receptor affinity). How it is done: as §1
A further data set deals with T2, human 5-HT1A receptors (Homo sapiens, UniProt P08908).
T2 construct: expressed in transfected cells; host or cells: CHO
In words: In vitro functional agonism at 5-HT1A receptors, adenylate cyclase in CHO cell-lines. The format is cell-based. Particulars: CHO cell-lines expressing cloned receptor; read-out: Agonism human 5-HT1A receptors, pEC50 (converted). How it is done:
as §2

The nature of data set [1]: Partition coefficient, experimental (Log P). It counts as physicochemical. Particulars: at pH 7.0.
The target of the next data set is Serotonin-5-HT4 (Homo sapiens, UniProt Q13639). In words: In vitro receptor affinity, Serotonin-5-HT4. The format is binding. Particulars: radioligand [3H]-GR 113808, read-out: K1 (in vitro receptor affinity). The protocol: as §1
The target of a further data set is T3, Serotonin-5-HT1A (Homo sapiens, UniProt P08908).
T3 sequence (P08908 1-422): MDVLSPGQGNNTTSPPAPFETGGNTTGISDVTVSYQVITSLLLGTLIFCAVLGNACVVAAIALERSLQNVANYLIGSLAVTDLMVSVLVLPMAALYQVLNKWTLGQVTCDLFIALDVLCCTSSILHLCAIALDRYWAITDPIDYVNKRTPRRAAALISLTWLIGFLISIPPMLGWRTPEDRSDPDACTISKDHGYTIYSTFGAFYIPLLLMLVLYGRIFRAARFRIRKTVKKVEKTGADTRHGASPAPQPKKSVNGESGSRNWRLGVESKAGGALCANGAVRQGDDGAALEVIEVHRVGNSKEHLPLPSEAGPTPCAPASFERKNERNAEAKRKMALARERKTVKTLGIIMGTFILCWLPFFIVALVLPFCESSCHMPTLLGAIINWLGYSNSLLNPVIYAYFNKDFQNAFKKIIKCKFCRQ
In words: In vitro receptor affinity, Serotonin-5-HT1A. It counts as binding. The settings on record: radioligand [3H]-8-OH-DPAT, read-out: K1 (in vitro receptor affinity). How it is done:
as §1

The next data set deals with α1-adrenergic. In words: In vitro receptor affinity, α1-adrenergic. The settings on record: rat, radioligand [3H]-prazosin; read-out: K1 (in vitro receptor affinity). The format is binding. The protocol:
as §1

The target of the next data set is Dopamine-D4 (Homo sapiens, UniProt P21917). Briefly: In vitro receptor affinity, Dopamine-D4. The format is binding. The settings on record: radioligand [3H]-spiperone, read-out: K1 (in vitro receptor affinity). How it is done:
as §1

The next data set concerns the target Serotonin-5-HT6 (Homo sapiens, UniProt P50406). Briefly: In vitro receptor affinity, Serotonin-5-HT6. The format is binding. Particulars: radioligand [3H]-LSD, read-out: K1 (in vitro receptor affinity). The protocol:
as §1

The subject of data set [2] is Apomorphine-induced climbing behaviour in mice. Briefly: Antagonism of apomorphine-induced climbing behaviour in mice. The settings on record: Mus musculus, po, read-out: Antagon. apomorphine ind. climbing: ED50. The format is in vivo. The protocol: For oral (p.o.) administration: to the desired quantity (0.5-5 mg) of the solid test compound in a glass tube, some glass beads were added and the solid was milled by vortexing for 2 minutes. After addition of 1 ml of a solution of 1% methylcellulose in water and 2% (v/v) of Poloxamer 188 (Lutrol F68), the compound was suspended by vortexing for 10 minutes. The pH was adjusted to 7. Remaining particles in the suspension were further suspended by using an ultrasonic bath.
Lower lip retraction, an in vivo animal model for serotonin 5-HT1A receptor agonistic activity, was measured according to the method described by Berendsen (1989); Apomorphine-induced climbing behaviour in mice, an in vivo animal model for dopamine-D2 receptor antagonistic activity, was determined according to the method described by Costall (1978).

The target of another data set is Histamine-H1 (Homo sapiens, UniProt P35367). Briefly: In vitro receptor affinity, Histamine-H1. It counts as binding. The settings on record: radioligand [3H]-pyrilamine, read-out: K1 (in vitro receptor affinity). The protocol: as §1
Another data set has as its target Serotonin-5-HT1D. In words: In vitro receptor affinity, Serotonin-5-HT1D. It counts as binding. The settings on record: bovine, radioligand [3H]-serotonin; read-out: K1 (in vitro receptor affinity). The protocol: as §1
For another data set, the target named is Serotonin-5-HT7 (Homo sapiens, UniProt P34969). Briefly: In vitro receptor affinity, Serotonin-5-HT7. It counts as binding. The settings on record: radioligand [3H]-LSD, read-out: K1 (in vitro receptor affinity). How it is done:
as §1

Another data set addresses Muscarine-M1 (Homo sapiens, UniProt P11229). Briefly: In vitro receptor affinity, Muscarine-M1. The format is binding. Particulars: radioligand [3H]-pirenzepine, read-out: K1 (in vitro receptor affinity). How it is done:
as §1

For another data set, the target named is Serotonin-5-HT2A (Homo sapiens, UniProt P28223). In words: In vitro receptor affinity, Serotonin-5-HT2A. It counts as binding. Particulars: radioligand [3H]-ketanserin, read-out: K1 (in vitro receptor affinity). How it is done: as §1

Sequence of Serotonin-5-HT6 (P50406 whole entry): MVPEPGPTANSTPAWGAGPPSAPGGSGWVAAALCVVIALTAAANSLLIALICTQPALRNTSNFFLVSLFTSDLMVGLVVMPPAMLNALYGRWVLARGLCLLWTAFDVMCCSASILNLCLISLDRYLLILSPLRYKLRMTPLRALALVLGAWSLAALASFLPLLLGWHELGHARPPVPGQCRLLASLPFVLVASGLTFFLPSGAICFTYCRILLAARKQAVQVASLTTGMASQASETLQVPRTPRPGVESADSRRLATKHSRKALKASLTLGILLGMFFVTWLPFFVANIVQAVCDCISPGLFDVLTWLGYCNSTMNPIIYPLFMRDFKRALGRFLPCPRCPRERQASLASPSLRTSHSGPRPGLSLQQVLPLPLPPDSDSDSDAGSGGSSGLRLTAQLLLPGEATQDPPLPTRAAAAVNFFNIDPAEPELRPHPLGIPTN
Sequence of Serotonin-5-HT7 (P34969 whole entry): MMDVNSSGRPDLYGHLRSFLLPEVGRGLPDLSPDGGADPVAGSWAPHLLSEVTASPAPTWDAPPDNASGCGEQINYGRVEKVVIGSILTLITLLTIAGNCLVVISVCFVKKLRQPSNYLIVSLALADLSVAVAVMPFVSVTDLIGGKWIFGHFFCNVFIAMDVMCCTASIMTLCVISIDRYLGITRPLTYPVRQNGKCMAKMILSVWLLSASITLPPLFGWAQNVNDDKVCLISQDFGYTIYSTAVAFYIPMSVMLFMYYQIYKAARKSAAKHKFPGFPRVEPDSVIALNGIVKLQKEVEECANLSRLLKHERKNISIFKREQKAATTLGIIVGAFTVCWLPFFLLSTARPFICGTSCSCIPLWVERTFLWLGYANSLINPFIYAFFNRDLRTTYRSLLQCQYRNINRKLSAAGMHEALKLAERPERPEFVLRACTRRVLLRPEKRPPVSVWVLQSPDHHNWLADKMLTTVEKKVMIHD
T1 sequence (P14416 whole entry): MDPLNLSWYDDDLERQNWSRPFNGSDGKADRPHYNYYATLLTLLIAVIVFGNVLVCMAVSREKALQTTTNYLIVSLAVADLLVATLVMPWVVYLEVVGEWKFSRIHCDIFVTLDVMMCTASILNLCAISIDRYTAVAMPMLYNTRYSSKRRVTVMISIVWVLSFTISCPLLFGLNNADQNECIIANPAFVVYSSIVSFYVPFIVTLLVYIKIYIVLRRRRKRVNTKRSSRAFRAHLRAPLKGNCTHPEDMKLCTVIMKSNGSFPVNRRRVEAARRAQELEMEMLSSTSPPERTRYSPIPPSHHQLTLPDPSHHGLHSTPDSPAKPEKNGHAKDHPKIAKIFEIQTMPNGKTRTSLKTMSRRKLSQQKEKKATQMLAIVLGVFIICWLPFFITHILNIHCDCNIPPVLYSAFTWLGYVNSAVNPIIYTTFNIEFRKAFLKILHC
Sequence of Dopamine-D4 (P21917 whole entry): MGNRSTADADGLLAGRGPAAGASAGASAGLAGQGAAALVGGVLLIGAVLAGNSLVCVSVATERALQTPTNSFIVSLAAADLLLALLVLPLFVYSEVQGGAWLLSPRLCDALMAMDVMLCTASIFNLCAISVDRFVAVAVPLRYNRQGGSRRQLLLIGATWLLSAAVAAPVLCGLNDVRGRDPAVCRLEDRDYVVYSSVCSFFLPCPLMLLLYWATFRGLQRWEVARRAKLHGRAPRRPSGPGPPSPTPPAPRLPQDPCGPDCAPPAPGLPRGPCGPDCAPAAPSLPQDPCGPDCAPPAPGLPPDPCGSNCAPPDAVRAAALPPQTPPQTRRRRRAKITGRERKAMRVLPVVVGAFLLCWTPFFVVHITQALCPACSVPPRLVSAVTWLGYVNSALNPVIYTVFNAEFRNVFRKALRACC
Sequence of Muscarine-M1 (P11229 whole entry): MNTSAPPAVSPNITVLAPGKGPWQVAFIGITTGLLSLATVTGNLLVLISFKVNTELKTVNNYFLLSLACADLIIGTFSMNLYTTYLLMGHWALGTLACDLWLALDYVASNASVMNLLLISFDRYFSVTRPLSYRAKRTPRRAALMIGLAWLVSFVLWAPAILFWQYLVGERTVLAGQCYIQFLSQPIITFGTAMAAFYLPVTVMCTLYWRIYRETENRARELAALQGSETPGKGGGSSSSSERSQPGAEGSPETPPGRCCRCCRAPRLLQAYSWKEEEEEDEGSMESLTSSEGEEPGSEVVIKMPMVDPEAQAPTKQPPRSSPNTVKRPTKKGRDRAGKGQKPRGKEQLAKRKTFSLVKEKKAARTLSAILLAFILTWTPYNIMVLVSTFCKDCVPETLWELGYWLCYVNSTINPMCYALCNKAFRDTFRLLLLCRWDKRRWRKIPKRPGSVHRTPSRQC
Sequence of Serotonin-5-HT4 (Q13639 whole entry): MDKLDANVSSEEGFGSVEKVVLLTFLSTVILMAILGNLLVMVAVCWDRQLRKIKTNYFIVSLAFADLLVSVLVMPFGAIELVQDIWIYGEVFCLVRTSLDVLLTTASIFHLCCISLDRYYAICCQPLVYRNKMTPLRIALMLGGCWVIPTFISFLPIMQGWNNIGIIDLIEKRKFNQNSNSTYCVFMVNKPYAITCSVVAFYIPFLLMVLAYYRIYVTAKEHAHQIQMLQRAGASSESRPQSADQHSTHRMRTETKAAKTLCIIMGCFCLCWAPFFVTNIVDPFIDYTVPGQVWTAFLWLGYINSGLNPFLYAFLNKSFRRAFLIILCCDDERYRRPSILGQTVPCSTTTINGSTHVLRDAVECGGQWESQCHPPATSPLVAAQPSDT
Sequence of Muscarine-M5 (P08912 whole entry): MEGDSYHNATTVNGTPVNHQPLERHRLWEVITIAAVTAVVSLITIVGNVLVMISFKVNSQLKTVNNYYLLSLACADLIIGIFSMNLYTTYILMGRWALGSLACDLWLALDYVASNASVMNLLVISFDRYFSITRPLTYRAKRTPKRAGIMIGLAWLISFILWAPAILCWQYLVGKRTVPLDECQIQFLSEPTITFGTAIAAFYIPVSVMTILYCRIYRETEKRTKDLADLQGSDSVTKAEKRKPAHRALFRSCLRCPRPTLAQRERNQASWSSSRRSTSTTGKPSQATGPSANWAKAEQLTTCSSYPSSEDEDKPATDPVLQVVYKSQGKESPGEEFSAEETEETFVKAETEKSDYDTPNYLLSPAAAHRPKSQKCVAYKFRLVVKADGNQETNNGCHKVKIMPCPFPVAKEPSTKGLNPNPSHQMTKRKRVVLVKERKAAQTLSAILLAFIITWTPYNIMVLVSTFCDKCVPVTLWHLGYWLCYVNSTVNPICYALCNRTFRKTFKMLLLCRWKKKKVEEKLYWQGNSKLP
Sequence of Muscarine-M4 (P08173 whole entry): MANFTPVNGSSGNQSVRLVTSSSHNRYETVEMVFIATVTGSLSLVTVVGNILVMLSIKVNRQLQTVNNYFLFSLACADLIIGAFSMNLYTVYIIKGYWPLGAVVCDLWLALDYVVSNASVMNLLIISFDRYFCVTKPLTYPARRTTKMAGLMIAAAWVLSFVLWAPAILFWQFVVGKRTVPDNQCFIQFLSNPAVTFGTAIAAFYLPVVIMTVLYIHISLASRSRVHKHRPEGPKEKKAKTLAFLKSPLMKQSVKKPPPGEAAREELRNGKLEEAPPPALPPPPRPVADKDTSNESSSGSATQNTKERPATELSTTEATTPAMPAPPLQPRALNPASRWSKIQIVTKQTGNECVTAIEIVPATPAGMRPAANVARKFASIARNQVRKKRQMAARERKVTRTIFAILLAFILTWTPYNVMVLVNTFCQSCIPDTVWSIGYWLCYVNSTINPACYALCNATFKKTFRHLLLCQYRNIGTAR
Sequence of 5-HT reuptake (P31645 whole entry): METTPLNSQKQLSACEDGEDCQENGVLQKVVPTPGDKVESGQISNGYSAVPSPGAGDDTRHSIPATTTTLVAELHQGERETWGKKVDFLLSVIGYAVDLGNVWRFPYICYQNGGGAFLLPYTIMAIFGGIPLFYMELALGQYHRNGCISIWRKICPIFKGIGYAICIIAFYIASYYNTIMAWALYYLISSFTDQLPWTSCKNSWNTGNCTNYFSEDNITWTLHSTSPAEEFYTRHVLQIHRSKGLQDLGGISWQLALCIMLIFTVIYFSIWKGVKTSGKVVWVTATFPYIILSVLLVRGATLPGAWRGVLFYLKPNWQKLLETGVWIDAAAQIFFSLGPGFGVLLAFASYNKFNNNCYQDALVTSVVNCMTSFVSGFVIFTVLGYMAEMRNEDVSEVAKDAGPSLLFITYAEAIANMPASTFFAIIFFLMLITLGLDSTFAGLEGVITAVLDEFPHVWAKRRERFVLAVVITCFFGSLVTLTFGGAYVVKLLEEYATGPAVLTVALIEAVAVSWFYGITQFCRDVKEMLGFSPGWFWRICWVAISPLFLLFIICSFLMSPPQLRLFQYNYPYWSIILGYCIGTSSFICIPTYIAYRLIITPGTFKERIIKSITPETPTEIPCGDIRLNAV
Sequence of Serotonin-5-HT3 (P35563 24-483): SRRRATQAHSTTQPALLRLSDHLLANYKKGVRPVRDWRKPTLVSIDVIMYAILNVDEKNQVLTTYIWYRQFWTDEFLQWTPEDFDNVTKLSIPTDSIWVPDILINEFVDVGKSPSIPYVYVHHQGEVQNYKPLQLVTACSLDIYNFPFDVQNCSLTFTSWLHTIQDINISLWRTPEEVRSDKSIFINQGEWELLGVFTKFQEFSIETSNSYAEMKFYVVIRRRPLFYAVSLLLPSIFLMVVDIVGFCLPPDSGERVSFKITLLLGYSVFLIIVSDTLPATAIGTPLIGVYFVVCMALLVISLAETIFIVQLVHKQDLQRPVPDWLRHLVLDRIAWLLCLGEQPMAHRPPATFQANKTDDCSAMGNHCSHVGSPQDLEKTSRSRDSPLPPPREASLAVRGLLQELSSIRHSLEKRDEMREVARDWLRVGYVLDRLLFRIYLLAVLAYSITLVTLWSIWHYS

The logP is the decadic logarithm of the partition coefficient of the neutral form, usually between octanol and water. Read a low logP as a more hydrophilic compound. The term ED50 denotes the dose at which the effect has come halfway, by size or by number of responders. As for `[O-][n+]1cc(CN2CCN(c3cccc4c3OCCO4)CC2)cc(-c2ccc(F)cc2)c1` [pyridine N-oxide, 1-(2,3-dihydro-1,4-benzodioxin-5-yl)-4-[[5-(4-fluorophenyl)-1-oxido-3-pyridinyl]methyl]-piperazine], the Ki on 5-HT reuptake was 320 nM; on Serotonin-5-HT2C, more than 10000 nM; on Muscarine-M5 it was more than 10000 nM; on Serotonin-5-HT3 it was more than 10000 nM; on Muscarine-M4, more than 10000 nM; on Dopamine-D1, more than 10000 nM. Moreover, the Ki at α2-adrenergic is 630 nM; at Serotonin-5-HT4, more than 10000 nM; at Serotonin-5-HT1A, 0.4 nM; at α1-adrenergic, 1000 nM; on Dopamine-D4 it was 20 nM; at Serotonin-5-HT6, more than 10000 nM. For the same molecule, the Ki at Histamine-H1 is more than 10000 nM; on Serotonin-5-HT1D, 4000 nM; on Serotonin-5-HT7, 100 nM; at Muscarine-M1, more than 10000 nM; at Serotonin-5-HT2A, 500 nM. Further, the Kb on human D2 receptors is 0.631 nM. At human 5-HT1A receptors, the EC50 is 1.58 nM. The logP in data set [1] is 2.6. In addition, in [2], the median effective dose (ED50) is 0.9 mg/kg.

Turning to `Fc1ccc(-c2cncc(CN3CCN(c4cccc5c4OCCO5)CC3)c2)cc1` [SLV313, 3-[[4-(2,3-dihydro-1,4-benzodioxin-5-yl)-1-piperazinyl]methyl]-5-(4-fluorophenyl)pyridine, reference compound], the Ki at 5-HT reuptake is more than 1000 nM; at Serotonin-5-HT2C, more than 1000 nM; at Muscarine-M5, more than 1000 nM; on Serotonin-5-HT3, more than 1000 nM; on Muscarine-M4, more than 1000 nM; at Dopamine-D1, more than 10000 nM. Moreover, the Ki on α2-adrenergic is more than 1000 nM; on Serotonin-5-HT4 it was more than 1000 nM; at Serotonin-5-HT1A, 0.8 nM; on α1-adrenergic it was 500 nM; on Dopamine-D4, 10 nM; at Serotonin-5-HT6 it was more than 1000 nM. The Ki is more than 1000 nM on Histamine-H1; 13000 nM on Serotonin-5-HT1D; 63 nM on Serotonin-5-HT7; more than 10000 nM at Muscarine-M1; 250 nM on Serotonin-5-HT2A. Further, at human D2 receptors, the Kb is 0.501 nM. Also, the EC50 at human 5-HT1A receptors is 1.26 nM. For the same molecule, the logP in data set [1] came out at 3.6. In data set [2], the median effective dose (ED50) was found to be 0.5 mg/kg.

For the origin of these results see US20070275977A1, “N-OXIDES OF PYRIDYLMETHYL -PIPERAZINE AND -PIPERIDINE DERIVATIVES” (priority 2006, published 2007).
